Assays:
NCI-H460 [1] = assay: Cytotoxicity against human NCI-H460 cells assessed as growth inhibition at 0.1 ug/ml after 24 hrs by MTT assay; format: functional; settings: NCI-H460, 24 h, read-out: GI
[2] = Cytotoxicity against human HO8910 cells assessed as growth inhibition at 100 ug/ml after 24 hrs by MTT assay; format: functional; settings: HO-8910, 24 h, read-out: GI
[3] = Cytotoxicity against human HO8910 cells assessed as growth inhibition at 10 ug/ml after 24 hrs by MTT assay; format: functional; settings: HO-8910, 24 h, read-out: GI
[4] = Cytotoxicity against human HO8910 cells assessed as growth inhibition at 1 ug/ml after 24 hrs by MTT assay; format: functional; settings: HO-8910, 24 h, read-out: GI
KB [5] = assay: Cytotoxicity against human KB cells assessed as growth inhibition at 100 ug/ml after 24 hrs by MTT assay; format: functional; settings: read-out: GI
KB [6] = assay: Cytotoxicity against human KB cells assessed as growth inhibition at 10 ug/ml after 24 hrs by MTT assay; format: functional; settings: read-out: GI
KB [7] = assay: Cytotoxicity against human KB cells assessed as growth inhibition at 1 ug/ml after 24 hrs by MTT assay; format: functional; settings: read-out: GI
Bel-7402 [8] = assay: Cytotoxicity against human Bel7402 cells assessed as growth inhibition at 100 ug/ml after 24 hrs by MTT assay; format: functional; settings: Bel-7402, 24 h, read-out: GI
Bel-7402 [9] = assay: Cytotoxicity against human Bel7402 cells assessed as growth inhibition at 10 ug/ml after 24 hrs by MTT assay; format: functional; settings: Bel-7402, 24 h, read-out: GI
Bel-7402 [10] = assay: Cytotoxicity against human Bel7402 cells assessed as growth inhibition at 1 ug/ml after 24 hrs by MTT assay; format: functional; settings: Bel-7402, 24 h, read-out: GI
PC-3 [11] = assay: Cytotoxicity against human PC3 cells assessed as growth inhibition at 100 ug/ml after 24 hrs by MTT assay; format: functional; settings: PC-3, 24 h, read-out: GI
PC-3 [12] = assay: Cytotoxicity against human PC3 cells assessed as growth inhibition at 10 ug/ml after 24 hrs by MTT assay; format: functional; settings: PC-3, 24 h, read-out: GI
PC-3 [13] = assay: Cytotoxicity against human PC3 cells assessed as growth inhibition at 1 ug/ml after 24 hrs by MTT assay; format: functional; settings: PC-3, 24 h, read-out: GI
PC-3 [14] = assay: Cytotoxicity against human PC3 cells assessed as growth inhibition at 0.1 ug/ml after 24 hrs by MTT assay; format: functional; settings: PC-3, 24 h, read-out: GI
CCRF S-180 [15] = assay: Antitumor activity against mouse S180 cells xenografted in ICR mouse assessed as reduction of tumor weight at 100 mg/kg, ig administered 2 days after tumor inoculation qd for 7 days; format: functional; settings: route intragastric
CCRF S-180 [16] = assay: Antitumor activity against mouse S180 cells xenografted in ICR mouse assessed as reduction of tumor weight at 200 mg/kg, ig administered 2 days after tumor inoculation qd for 7 days; format: functional; settings: route intragastric
CCRF S-180 [17] = assay: Antitumor activity against mouse S180 cells xenografted in ICR mouse assessed as inhibition of tumor weight at 200 mg/kg, ig administered 2 days after tumor inoculation qd for 7 days relative to control; format: functional; settings: CCRF S-180, po, route intragastric
CCRF S-180 [18] = assay: Cytotoxicity against mouse S180 cells assessed as growth inhibition at 100 ug/ml after 24 hrs by MTT assay; format: functional; settings: CCRF S-180, 24 h
CCRF S-180 [19] = assay: Cytotoxicity against mouse S180 cells assessed as growth inhibition at 10 ug/ml after 24 hrs by MTT assay; format: functional; settings: CCRF S-180, 24 h
CCRF S-180 [20] = assay: Cytotoxicity against mouse S180 cells assessed as growth inhibition at 1 ug/ml after 24 hrs by MTT assay; format: functional; settings: CCRF S-180, 24 h
CCRF S-180 [21] = assay: Cytotoxicity against mouse S180 cells assessed as growth inhibition at 0.1 ug/ml after 24 hrs by MTT assay; format: functional; settings: CCRF S-180, 24 h
Mus musculus [22] = assay: Acute toxicity in ICR mouse assessed as gross pathological changes at 1000 mg/kg, ig; format: organism-based; set-up: dose 1000 mg/kg, route intragastric; settings: in vivo, po
Mus musculus [23] = assay: Acute toxicity in ICR mouse assessed as mortality at 1000 mg/kg, ig; format: organism-based; set-up: dose 1000 mg/kg, route intragastric; settings: in vivo, po
[24] = Acute toxicity in ICR mouse; format: organism-based; settings: in vivo
Mus musculus [25] = assay: Acute toxicity in ICR mouse assessed as mortality at 100 mg/kg, ip qd for 4 days; format: organism-based; set-up: dose 100 mg/kg, route intraperitoneal; settings: in vivo, 96 h
Mus musculus [26] = assay: Acute toxicity in ICR mouse assessed as change in body weight at 100 mg/kg, ip qd for 4 days; format: organism-based; set-up: dose 100 mg/kg, route intraperitoneal; settings: in vivo, 96 h
Mus musculus [27] = assay: Acute toxicity in ICR mouse assessed as mortality at 200 mg/kg, ip qd for 9 days measured on day 11; format: organism-based; set-up: dose 200 mg/kg, route intraperitoneal; settings: in vivo, 216 h
NCI-H460 [28] = assay: Cytotoxicity against human NCI-H460 cells assessed as growth inhibition at 100 ug/ml after 24 hrs by MTT assay; format: functional; settings: NCI-H460, 24 h, read-out: GI
NCI-H460 [29] = assay: Cytotoxicity against human NCI-H460 cells assessed as growth inhibition at 10 ug/ml after 24 hrs by MTT assay; format: functional; settings: NCI-H460, 24 h, read-out: GI
NCI-H460 [30] = assay: Cytotoxicity against human NCI-H460 cells assessed as growth inhibition at 1 ug/ml after 24 hrs by MTT assay; format: functional; settings: NCI-H460, 24 h, read-out: GI

O=C(CCCCC1CCSS1)Nc1ccc(Cl)cn1 (stereo not given)
inhibition of growth at 0.1 µg/mL (NCI-H460 [1]): 3.93% | inhibition of growth at 100 µg/mL [2]: 68.5% | inhibition of growth at 10 µg/mL [3]: 27.5% | inhibition of growth at 1 µg/mL [4]: 2.1% | inhibition of growth at 100 µg/mL (KB [5]): 74.5% | inhibition of growth at 10 µg/mL (KB [6]): 28.6% | inhibition of growth at 1 µg/mL (KB [7]): 0.76% | inhibition of growth at 100 µg/mL (Bel-7402 [8]): 48.5% | inhibition of growth at 10 µg/mL (Bel-7402 [9]): 16.1% | inhibition of growth at 1 µg/mL (Bel-7402 [10]): 7.44% | inhibition of growth at 100 µg/mL (PC-3 [11]): 42.3% | inhibition of growth at 10 µg/mL (PC-3 [12]): 17.1% | inhibition of growth at 1 µg/mL (PC-3 [13]): 2% | inhibition of growth at 0.1 µg/mL (PC-3 [14]): 2.22% | Activity (CCRF S-180 [15]): 1.53 g | Activity (CCRF S-180 [16]): 1.15 g | inhibition in vivo at 200 mg/kg (CCRF S-180 [17]): 24.7% | inhibition at 100 µg/mL (CCRF S-180 [18]): 74.3% | inhibition at 10 µg/mL (CCRF S-180 [19]): 24.5% | inhibition at 1 µg/mL (CCRF S-180 [20]): 13% | inhibition at 0.1 µg/mL (CCRF S-180 [21]): 5.92% | Activity (Mus musculus [22]): Non-toxic | Activity (Mus musculus [23]): Non-toxic | LD50 [24]: 1000 mg/kg | Activity (Mus musculus [25]): Non-toxic | Activity (Mus musculus [26]): 10% | Activity (Mus musculus [27]): Toxic | inhibition of growth at 100 µg/mL (NCI-H460 [28]): 58.5% | inhibition of growth at 10 µg/mL (NCI-H460 [29]): 33.7% | inhibition of growth at 1 µg/mL (NCI-H460 [30]): 6.26%
